The subject of one assay is HeLa. In words: viability loss in HeLa cells – cell-based, 24 h, cherry-picked samples, cytotoxicity control, dose response (AID 504726).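 Also: potency for cytotoxicity as loss of luminescence signal.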 The assay is classed as functional. The conditions noted are these: Homo sapiens.
In another assay the target is ORF 73 (Human herpesvirus 8, UniProt O40947). In words: KSHV LANA DNA-binding disruption – biochemical, fluorescence polarization, cherry-picked samples, dose response (AID 504725).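 Also: fluorescence polarization of a labeled DNA duplex reporting LANA DNA binding; potency is for inhibitors that block LANA binding to the DNA.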 On the set-up: species or system Human gammaherpesvirus 8. (In fluorescence polarisation assays a small probe gives low polarisation when free and higher when bound to something large.)
Sequence of ORF 73 (O40947 whole entry): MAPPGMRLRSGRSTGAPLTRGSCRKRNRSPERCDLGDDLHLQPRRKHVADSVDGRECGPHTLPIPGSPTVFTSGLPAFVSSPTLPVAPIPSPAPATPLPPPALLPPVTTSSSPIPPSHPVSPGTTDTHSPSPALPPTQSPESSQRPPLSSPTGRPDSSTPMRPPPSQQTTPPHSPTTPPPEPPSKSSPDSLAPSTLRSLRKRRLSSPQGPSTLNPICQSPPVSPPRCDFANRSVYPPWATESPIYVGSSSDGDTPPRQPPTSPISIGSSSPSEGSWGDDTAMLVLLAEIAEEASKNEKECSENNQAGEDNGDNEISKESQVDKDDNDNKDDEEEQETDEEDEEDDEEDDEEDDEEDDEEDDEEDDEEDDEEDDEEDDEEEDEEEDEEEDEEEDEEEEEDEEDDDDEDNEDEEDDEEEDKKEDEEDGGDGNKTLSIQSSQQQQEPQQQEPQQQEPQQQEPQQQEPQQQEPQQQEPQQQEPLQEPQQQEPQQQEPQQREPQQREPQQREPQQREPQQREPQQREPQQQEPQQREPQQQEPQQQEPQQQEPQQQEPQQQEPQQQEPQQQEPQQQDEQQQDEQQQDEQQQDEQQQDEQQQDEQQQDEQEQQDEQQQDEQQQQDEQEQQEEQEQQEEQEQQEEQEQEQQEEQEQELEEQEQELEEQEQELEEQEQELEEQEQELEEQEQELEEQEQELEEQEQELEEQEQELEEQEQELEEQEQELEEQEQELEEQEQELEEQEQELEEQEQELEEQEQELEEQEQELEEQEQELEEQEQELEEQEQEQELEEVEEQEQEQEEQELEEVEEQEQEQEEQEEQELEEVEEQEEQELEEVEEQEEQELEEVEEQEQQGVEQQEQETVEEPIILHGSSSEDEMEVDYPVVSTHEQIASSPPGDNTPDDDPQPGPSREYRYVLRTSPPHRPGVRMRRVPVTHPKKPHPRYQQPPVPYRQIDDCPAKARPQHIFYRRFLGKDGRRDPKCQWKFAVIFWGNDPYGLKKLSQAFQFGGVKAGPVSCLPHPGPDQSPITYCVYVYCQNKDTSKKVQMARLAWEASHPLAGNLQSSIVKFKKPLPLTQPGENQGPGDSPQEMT

Assay [1] addresses T1, Insulin-degrading enzyme (Homo sapiens, UniProt P14735).
T1 sequence (P14735 whole entry): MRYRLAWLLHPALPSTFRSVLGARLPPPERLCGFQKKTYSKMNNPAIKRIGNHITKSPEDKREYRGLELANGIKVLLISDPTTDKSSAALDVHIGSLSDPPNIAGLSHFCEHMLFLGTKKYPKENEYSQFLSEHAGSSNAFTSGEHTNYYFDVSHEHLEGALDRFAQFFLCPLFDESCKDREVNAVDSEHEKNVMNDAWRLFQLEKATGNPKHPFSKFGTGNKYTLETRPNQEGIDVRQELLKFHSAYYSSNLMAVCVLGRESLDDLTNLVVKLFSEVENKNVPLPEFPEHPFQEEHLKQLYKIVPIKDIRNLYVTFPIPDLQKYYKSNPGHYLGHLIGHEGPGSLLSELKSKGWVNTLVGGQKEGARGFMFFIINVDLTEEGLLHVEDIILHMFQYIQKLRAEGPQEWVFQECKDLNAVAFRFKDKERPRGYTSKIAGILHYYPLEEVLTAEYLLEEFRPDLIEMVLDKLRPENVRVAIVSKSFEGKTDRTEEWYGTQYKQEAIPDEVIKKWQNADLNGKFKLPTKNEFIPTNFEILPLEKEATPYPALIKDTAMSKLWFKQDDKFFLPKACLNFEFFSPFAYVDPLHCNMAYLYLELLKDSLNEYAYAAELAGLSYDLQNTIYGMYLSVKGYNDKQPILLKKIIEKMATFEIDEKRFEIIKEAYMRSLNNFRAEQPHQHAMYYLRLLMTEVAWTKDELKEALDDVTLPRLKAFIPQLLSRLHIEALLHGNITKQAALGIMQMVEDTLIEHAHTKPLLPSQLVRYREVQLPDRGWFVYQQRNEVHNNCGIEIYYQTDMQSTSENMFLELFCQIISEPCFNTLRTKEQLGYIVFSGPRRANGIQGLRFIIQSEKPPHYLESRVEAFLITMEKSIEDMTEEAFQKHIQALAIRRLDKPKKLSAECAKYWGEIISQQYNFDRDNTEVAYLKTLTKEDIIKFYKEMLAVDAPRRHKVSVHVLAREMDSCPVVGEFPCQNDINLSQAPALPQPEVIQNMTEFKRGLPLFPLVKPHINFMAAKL
In words: recombinant IDE activation, cell-free – biochemical, fluorescence polarization, counter-screen for IDE activator project, dose response (AID 588681).

Assay [2] has as its target T1, Insulin-degrading enzyme. In words: cellular IDE activation of Abeta substrate cleavage – fluorescence polarization, HEK cells, dose response (AID 588439). It is filed as functional, cell-based.
A further assay deals with HEK293. In words: membrane integrity loss in HEK cells – cell-based, fluorescence, cytotoxicity control for IDE activator project, dose response (AID 588440).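 Also: cytotoxicity by LDH release measuring loss of membrane integrity.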 It is filed as functional, Homo sapiens. To be noted: hek293.
Assay [3] can be described thus: viability loss in HeLa cells – cytotoxicity control for MgcRacGAP inhibitor project, dose response (AID 624300). The assay is classed as functional.
Assay [4] deals with T2, Rac GTPase-activating protein 1 (Homo sapiens, UniProt Q9H0H5).
T2 sequence (Q9H0H5 whole entry): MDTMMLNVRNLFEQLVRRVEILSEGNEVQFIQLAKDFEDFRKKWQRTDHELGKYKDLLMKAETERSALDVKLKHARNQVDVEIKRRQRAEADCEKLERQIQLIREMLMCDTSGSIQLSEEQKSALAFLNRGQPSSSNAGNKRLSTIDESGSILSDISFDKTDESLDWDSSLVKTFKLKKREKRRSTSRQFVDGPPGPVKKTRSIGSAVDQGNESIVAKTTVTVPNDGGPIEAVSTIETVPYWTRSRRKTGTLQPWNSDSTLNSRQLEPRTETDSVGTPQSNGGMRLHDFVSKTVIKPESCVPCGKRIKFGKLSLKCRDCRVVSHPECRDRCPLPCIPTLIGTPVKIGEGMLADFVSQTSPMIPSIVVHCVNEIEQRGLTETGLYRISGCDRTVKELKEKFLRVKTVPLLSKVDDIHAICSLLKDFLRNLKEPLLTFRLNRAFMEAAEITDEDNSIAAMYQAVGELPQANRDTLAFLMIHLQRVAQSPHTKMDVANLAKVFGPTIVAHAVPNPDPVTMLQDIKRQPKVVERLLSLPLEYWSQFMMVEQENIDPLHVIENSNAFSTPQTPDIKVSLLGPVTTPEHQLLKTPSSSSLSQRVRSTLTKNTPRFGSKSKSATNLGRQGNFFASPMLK
In words: blockers of MgcRacGAP-driven Rac1 GTP hydrolysis – biochemical, ADP Hunter fluorescence, primary and confirmatory, confirmation (AID 624330). The assay is classed as functional.

The target of assay [5] is DNA dC->dU-editing enzyme APOBEC-3A (Homo sapiens, UniProt P31941). In words: A3A deaminase inhibition for selectivity – biochemical, dose response (AID 504722). It is filed as functional.
Sequence of DNA dC->dU-editing enzyme APOBEC-3A (P31941 whole entry): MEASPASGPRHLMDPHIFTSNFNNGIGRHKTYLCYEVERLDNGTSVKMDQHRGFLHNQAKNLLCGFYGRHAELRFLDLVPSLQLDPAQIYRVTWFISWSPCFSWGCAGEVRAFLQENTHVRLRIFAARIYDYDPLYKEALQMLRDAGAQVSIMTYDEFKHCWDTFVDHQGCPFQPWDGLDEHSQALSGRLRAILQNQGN
For assay [6], the target named is DNA dC->dU-editing enzyme APOBEC-3G (Homo sapiens, UniProt Q9HC16). Description: Dose Response confirmation of small molecule APOBEC3G DNA Deaminase Inhibitors via a fluorescence-based single-stranded DNA deaminase assay. [Related pubchem assays (depositor defined):AID493012, AID493028]. The assay is classed as functional.
Sequence of DNA dC->dU-editing enzyme APOBEC-3G (Q9HC16 whole entry): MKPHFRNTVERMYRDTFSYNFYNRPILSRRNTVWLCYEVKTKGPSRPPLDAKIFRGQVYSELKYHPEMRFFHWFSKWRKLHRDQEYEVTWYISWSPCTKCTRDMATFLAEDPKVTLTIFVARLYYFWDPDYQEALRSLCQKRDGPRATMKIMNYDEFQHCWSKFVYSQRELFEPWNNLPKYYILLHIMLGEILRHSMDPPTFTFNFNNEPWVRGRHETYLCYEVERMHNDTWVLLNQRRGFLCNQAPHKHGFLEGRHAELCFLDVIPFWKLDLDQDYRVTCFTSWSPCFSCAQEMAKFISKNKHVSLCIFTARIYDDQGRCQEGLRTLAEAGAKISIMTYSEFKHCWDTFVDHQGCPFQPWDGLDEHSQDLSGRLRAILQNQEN
A short description of assay [7]: HGIII-sPLA2 enzyme inhibition potency – biochemical, QFRET, IC50, dose response (AID 743457).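 Also: green fluorescence rise as the enzyme cleaves BODIPY PC-A2 in liposomes.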
The target in assay [8] is G-protein coupled receptor 55 (Homo sapiens, UniProt Q9Y2T6). In words: selective activators of receptor GPR55 – imaging, U2OS cells, beta-arrestin-GFP redistribution, primary screen (AID 1961). It is filed as functional.
Sequence of G-protein coupled receptor 55 (Q9Y2T6 whole entry): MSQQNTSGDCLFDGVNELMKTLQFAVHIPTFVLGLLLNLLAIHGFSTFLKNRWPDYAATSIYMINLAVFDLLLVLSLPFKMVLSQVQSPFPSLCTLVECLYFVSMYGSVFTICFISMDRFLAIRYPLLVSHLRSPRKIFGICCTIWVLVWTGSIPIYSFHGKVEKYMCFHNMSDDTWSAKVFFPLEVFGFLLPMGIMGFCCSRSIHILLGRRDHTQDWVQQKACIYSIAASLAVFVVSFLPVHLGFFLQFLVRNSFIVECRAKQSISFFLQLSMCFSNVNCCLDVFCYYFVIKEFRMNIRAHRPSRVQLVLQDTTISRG

Broadly, the AC50 is the concentration giving half of the maximal activity seen. One may read the EC50 as the concentration that produces a half-maximal response. As a reminder, the IC50 is the midpoint of a concentration-inhibition curve. The CC50 is the concentration at which the toxic effect on the cells reaches its halfway point.

Activity calls are given as the source filed them. Where only a bound is given, the exact number is not on record here.

As for `C[n+]1c2cc(N)ccc2cc2ccc(N)cc21` [EUFLAVINE], the AC50 is 14.7 µM (active) with HeLa and 0.415 µM (active) on ORF 73. The EC50 on Insulin-degrading enzyme [1] and at Insulin-degrading enzyme [2] was > 54.7 µM (inactive) each time. For the same compound, the IC50 is > 89.2 µM (inactive) with HEK293 and 78.3 µM (active) in assay [4]. For the same compound, the CC50 in assay [3] was 11.6 µM (active).

Consider `CCn1c(S)nnc1-c1cccc(Br)c1`, for which the values for the IC50 in assay [5], in assay [6] and in assay [7] were > 100 µM (inactive), 4.37 µM (active) and > 122 µM (inactive), respectively.

For the compound `Sc1nccn1-c1ccc(Cl)cc1`, the IC50 in assay [5] was > 100 µM (inactive); in assay [6] it was 16.8 µM (active).

On to `O=C(Oc1ccccc1/C=C\C(=O)c1cc2ccccc2o1)c1ccccc1`, for which, in assay [8], the EC50 was 15.4 µM (inactive).

(Values after ChEMBL document CHEMBL1201862, “PubChem BioAssay data set” (2004).)
